{"source": "patent US20020137929A1", "about": "“1 - (3-heterocyclylphenyl) isothiourea, -isourea, -guanidine and -amidine herbicidal agents” (Intellectual Property Department, BASF Aktiengesellschaft, priority 1998, published 2002)", "key": {"SETVI (Foxtail, Green)": {"tested_on": "SETVI (Foxtail, Green)", "assay": "Preemergence herbicidal evaluation", "format": "in vivo, Setaria viridis", "conditions": "rated 4-5 weeks after treatment, rating scale 0-9", "summary_of_the_method": "(§1)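 Scores (0–9) reflect visual comparison with control plants for stand, vigor, malformation, size and chlorosis. Compound was applied to the soil after sowing, before emergence, as an aqueous acetone spray (about 0.0156–0.500 kg/ha), and cups were kept in a greenhouse for 4–5 weeks.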"}, "AMBEL (Ragweed, Common) [1]": {"tested_on": "AMBEL (Ragweed, Common)", "assay": "Preemergence herbicidal evaluation", "format": "in vivo, Ambrosia artemisifolia", "conditions": "rated 4-5 weeks after treatment, rating scale 0-9", "summary_of_the_method": "as §1"}, "GALAP (Galium)": {"tested_on": "GALAP (Galium)", "assay": "Preemergence herbicidal evaluation", "format": "in vivo, Galium aparine", "conditions": "rated 4-5 weeks after treatment, rating scale 0-9", "summary_of_the_method": "as §1"}, "CASOB (Sicklepod)": {"tested_on": "CASOB (Sicklepod)", "assay": "Preemergence herbicidal evaluation", "format": "in vivo, Cassia obtusifolia", "conditions": "rated 4-5 weeks after treatment, rating scale 0-9", "summary_of_the_method": "as §1"}, "[2]": {"tested_on": "IPOHE (Morningglory, Ivyleaf)", "assay": "Postemergence herbicidal evaluation", "format": "in vivo, Ipomoea hederacea", "conditions": "postemergence", "summary_of_the_method": "(§2)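 Each compound, dispersed in an acetone/water mix (50/50) carrying 0.5% TWEEN 20, is nozzle-sprayed at 40 psi on approximately two-week-old seedlings at about 0.0156–0.500 kg/ha. Plants are assessed 4–5 weeks afterward on a 0–9 scale relative to control; duplicate tests are averaged.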"}, "[3]": {"tested_on": "GLXMAW (Soybean, Williams)", "assay": "Preemergence herbicidal evaluation", "format": "in vivo, Glycine max, (L.) Merr. cv Williams", "conditions": "rated 4-5 weeks after treatment, rating scale 0-9", "summary_of_the_method": "as §1"}, "[4]": {"tested_on": "GLXMAW (Soybean, Williams)", "assay": "Postemergence herbicidal evaluation", "format": "in vivo, Glycine max, (L.) Merr. cv Williams", "conditions": "postemergence", "summary_of_the_method": "as §2"}, "ABUTH (Velvetleaf)": {"tested_on": "ABUTH (Velvetleaf)", "assay": "Preemergence herbicidal evaluation", "format": "in vivo, Abutilon theophrasti", "conditions": "rated 4-5 weeks after treatment, rating scale 0-9", "summary_of_the_method": "as §1"}, "ECHCG (Barnyardgrass)": {"tested_on": "ECHCG (Barnyardgrass)", "assay": "Preemergence herbicidal evaluation", "format": "in vivo, Echinochloa crus-galli", "conditions": "rated 4-5 weeks after treatment, rating scale 0-9", "summary_of_the_method": "as §1"}, "AMBEL (Ragweed, Common) [5]": {"tested_on": "AMBEL (Ragweed, Common)", "assay": "Postemergence herbicidal evaluation", "format": "in vivo, Ambrosia artemisifolia", "conditions": "postemergence", "summary_of_the_method": "as §2"}, "CYPSE (Flatsedge)": {"tested_on": "CYPSE (Flatsedge)", "assay": "Preemergence weed control under flooded paddy conditions", "format": "in vivo, Cyperus serotinus", "conditions": "0.2500 kg/ha, rated 3-4 weeks after treatment", "summary_of_the_method": "(§3)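 Visual injury scored 0-9 against control three to four weeks post-treatment, greenhouse-grown. Application: acetone/water (50/50) solutions dosed directly into flood water (1.5-3 cm over silt loam, planted top 0.5 cm), roughly 0.0313 to 0.500 kg/ha active ingredient.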"}, "ZEAMX (Corn, Field)": {"tested_on": "ZEAMX (Corn, Field)", "assay": "Postemergence herbicidal evaluation", "format": "in vivo, Zea mays", "conditions": "postemergence", "summary_of_the_method": "as §2"}, "[6]": {"tested_on": "SAGPY (Arrowhead (Pygmaea))", "assay": "Preemergence weed control under flooded paddy conditions", "format": "in vivo, Sagittaria pygmaea", "conditions": "rated 3-4 weeks after treatment", "summary_of_the_method": "as §3"}}, "data": [{"smiles": "Cc1ccc(CN2C(=O)CSC2=Nc2cc(-n3c(=O)cc(C(F)(F)F)n(C)c3=O)c(F)cc2Cl)cc1C", "note": "[Compound 147, 3-{4-Chloro-5-{[3-(3,4-dimethylbenzyl)-4-oxo-2-thiazolidinylidene]amino}-2-fluorophenyl}-1-methyl-6-(trifluoromethyl)-2,4(1H,3H)-pyrimidinedione]", "values": [{"measurement": "Preemergence herbicidal rating SETVI", "setting": "SETVI (Foxtail, Green); rate 0.0156 kg/ha", "value": 1.0}, {"measurement": "Preemergence herbicidal rating SETVI", "setting": "SETVI (Foxtail, Green); rate 0.0313 kg/ha", "value": 0.0}, {"measurement": "Preemergence herbicidal rating SETVI", "setting": "SETVI (Foxtail, Green); rate 0.0625 kg/ha", "value": 0.0}, {"measurement": "Preemergence herbicidal rating SETVI", "setting": "SETVI (Foxtail, Green); rate 0.1250 kg/ha", "value": 1.0}, {"measurement": "Preemergence herbicidal rating SETVI", "setting": "SETVI (Foxtail, Green); rate 0.2500 kg/ha", "value": 4.0}, {"measurement": "Preemergence herbicidal rating AMBEL", "setting": "AMBEL (Ragweed, Common) [1]; rate 0.0156 kg/ha", "value": 0.0}, {"measurement": "Preemergence herbicidal rating AMBEL", "setting": "AMBEL (Ragweed, Common) [1]; rate 0.0313 kg/ha", "value": 0.0}, {"measurement": "Preemergence herbicidal rating AMBEL", "setting": "AMBEL (Ragweed, Common) [1]; rate 0.0625 kg/ha", "value": 0.0}, {"measurement": "Preemergence herbicidal rating AMBEL", "setting": "AMBEL (Ragweed, Common) [1]; rate 0.1250 kg/ha", "value": 1.0}, {"measurement": "Preemergence herbicidal rating AMBEL", "setting": "AMBEL (Ragweed, Common) [1]; rate 0.2500 kg/ha", "value": 4.0}, {"measurement": "Preemergence herbicidal rating GALAP", "setting": "GALAP (Galium); rate 0.0156 kg/ha", "value": 0.0}, {"measurement": "Preemergence herbicidal rating GALAP", "setting": "GALAP (Galium); rate 0.0313 kg/ha", "value": 0.0}, {"measurement": "Preemergence herbicidal rating GALAP", "setting": "GALAP (Galium); rate 0.0625 kg/ha", "value": 0.0}, {"measurement": "Preemergence herbicidal rating GALAP", "setting": "GALAP (Galium); rate 0.1250 kg/ha", "value": 1.0}, {"measurement": "Preemergence herbicidal rating GALAP", "setting": "GALAP (Galium); rate 0.2500 kg/ha", "value": 1.0}, {"measurement": "Preemergence herbicidal rating CASOB", "setting": "CASOB (Sicklepod); rate 0.0156 kg/ha", "value": 0.0}, {"measurement": "Preemergence herbicidal rating CASOB", "setting": "CASOB (Sicklepod); rate 0.0313 kg/ha", "value": 0.0}, {"measurement": "Preemergence herbicidal rating CASOB", "setting": "CASOB (Sicklepod); rate 0.0625 kg/ha", "value": 0.0}, {"measurement": "Preemergence herbicidal rating CASOB", "setting": "CASOB (Sicklepod); rate 0.1250 kg/ha", "value": 0.0}, {"measurement": "Preemergence herbicidal rating CASOB", "setting": "CASOB (Sicklepod); rate 0.2500 kg/ha", "value": 5.0}, {"measurement": "herbicidal rating IPOHE", "setting": "[2]; rate 0.0156 kg/ha", "value": 9.0}, {"measurement": "herbicidal rating IPOHE", "setting": "[2]; rate 0.0313 kg/ha", "value": 9.0}, {"measurement": "herbicidal rating IPOHE", "setting": "[2]; rate 0.0625 kg/ha", "value": 9.0}, {"measurement": "Preemergence herbicidal rating GLXMAW", "setting": "[3]; rate 0.0156 kg/ha", "value": 1.0}, {"measurement": "Preemergence herbicidal rating GLXMAW", "setting": "[3]; rate 0.0313 kg/ha", "value": 0.0}, {"measurement": "Preemergence herbicidal rating GLXMAW", "setting": "[3]; rate 0.0625 kg/ha", "value": 0.0}, {"measurement": "Preemergence herbicidal rating GLXMAW", "setting": "[3]; rate 0.1250 kg/ha", "value": 0.0}, {"measurement": "Preemergence herbicidal rating GLXMAW", "setting": "[3]; rate 0.2500 kg/ha", "value": 1.0}, {"measurement": "herbicidal rating GLXMAW", "setting": "[4]; rate 0.0156 kg/ha", "value": 5.5}, {"measurement": "herbicidal rating GLXMAW", "setting": "[4]; rate 0.0313 kg/ha", "value": 5.5}, {"measurement": "herbicidal rating GLXMAW", "setting": "[4]; rate 0.0625 kg/ha", "value": 6.0}, {"measurement": "Preemergence herbicidal rating ABUTH", "setting": "ABUTH (Velvetleaf); rate 0.0156 kg/ha", "value": 0.0}, {"measurement": "Preemergence herbicidal rating ABUTH", "setting": "ABUTH (Velvetleaf); rate 0.0313 kg/ha", "value": 0.0}, {"measurement": "Preemergence herbicidal rating ABUTH", "setting": "ABUTH (Velvetleaf); rate 0.0625 kg/ha", "value": 0.0}, {"measurement": "Preemergence herbicidal rating ABUTH", "setting": "ABUTH (Velvetleaf); rate 0.1250 kg/ha", "value": 4.0}, {"measurement": "Preemergence herbicidal rating ABUTH", "setting": "ABUTH (Velvetleaf); rate 0.2500 kg/ha", "value": 7.0}, {"measurement": "Preemergence herbicidal rating ECHCG", "setting": "ECHCG (Barnyardgrass); rate 0.0156 kg/ha", "value": 0.0}, {"measurement": "Preemergence herbicidal rating ECHCG", "setting": "ECHCG (Barnyardgrass); rate 0.0313 kg/ha", "value": 0.0}, {"measurement": "Preemergence herbicidal rating ECHCG", "setting": "ECHCG (Barnyardgrass); rate 0.0625 kg/ha", "value": 0.0}, {"measurement": "Preemergence herbicidal rating ECHCG", "setting": "ECHCG (Barnyardgrass); rate 0.1250 kg/ha", "value": 0.0}, {"measurement": "Preemergence herbicidal rating ECHCG", "setting": "ECHCG (Barnyardgrass); rate 0.2500 kg/ha", "value": 0.0}, {"measurement": "herbicidal rating AMBEL", "setting": "AMBEL (Ragweed, Common) [5]; rate 0.0156 kg/ha", "value": 6.0}, {"measurement": "herbicidal rating AMBEL", "setting": "AMBEL (Ragweed, Common) [5]; rate 0.0313 kg/ha", "value": 9.0}, {"measurement": "herbicidal rating AMBEL", "setting": "AMBEL (Ragweed, Common) [5]; rate 0.0625 kg/ha", "value": 7.0}, {"measurement": "herbicidal effect rating, CYPSE", "setting": "CYPSE (Flatsedge)", "value": 0.0}, {"measurement": "herbicidal rating ZEAMX", "setting": "ZEAMX (Corn, Field); rate 0.0156 kg/ha", "value": 4.0}, {"measurement": "herbicidal rating ZEAMX", "setting": "ZEAMX (Corn, Field); rate 0.0313 kg/ha", "value": 4.5}, {"measurement": "herbicidal rating ZEAMX", "setting": "ZEAMX (Corn, Field); rate 0.0625 kg/ha", "value": 4.5}, {"measurement": "herbicidal effect rating, SAGPY", "setting": "[6]; 0.0313 kg/ha", "value": 0.0}, {"measurement": "herbicidal effect rating, SAGPY", "setting": "[6]; 0.0625 kg/ha", "value": 0.0}, {"measurement": "herbicidal effect rating, SAGPY", "setting": "[6]; 0.1250 kg/ha", "value": 0.0}, {"measurement": "herbicidal effect rating, SAGPY", "setting": "[6]; 0.2500 kg/ha", "value": 2.0}]}]}
